Biological target: Ba/F3 V617F cells (Homo sapiens, UniProt O60674, V617F, cells depend on it)
Assay: Proliferation assay (Cell Titer-Glo, 72 h) utilizing Ba/F3 V617F cells
Assay type: cell-based, mouse
Details: Ba/F3 V617F cells, proliferation, level of activity given as class symbol, read-out: IC50 (the source's name)
Procedure, shortened: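 Ba/F3 V617F cells in RPMI/10% FBS, 1×10^5 cells/mL, exposed in duplicate to 3-fold serial compound dilutions (top 5 mM DMSO stock, diluted 1:250, added as 2× solution in 5% FBS medium) for 72 h at 37 °C. Viability by Cell Titer-Glo luminescence; IC50 reported.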

Sequence of Ba/F3 V617F cells (O60674 whole entry V617F): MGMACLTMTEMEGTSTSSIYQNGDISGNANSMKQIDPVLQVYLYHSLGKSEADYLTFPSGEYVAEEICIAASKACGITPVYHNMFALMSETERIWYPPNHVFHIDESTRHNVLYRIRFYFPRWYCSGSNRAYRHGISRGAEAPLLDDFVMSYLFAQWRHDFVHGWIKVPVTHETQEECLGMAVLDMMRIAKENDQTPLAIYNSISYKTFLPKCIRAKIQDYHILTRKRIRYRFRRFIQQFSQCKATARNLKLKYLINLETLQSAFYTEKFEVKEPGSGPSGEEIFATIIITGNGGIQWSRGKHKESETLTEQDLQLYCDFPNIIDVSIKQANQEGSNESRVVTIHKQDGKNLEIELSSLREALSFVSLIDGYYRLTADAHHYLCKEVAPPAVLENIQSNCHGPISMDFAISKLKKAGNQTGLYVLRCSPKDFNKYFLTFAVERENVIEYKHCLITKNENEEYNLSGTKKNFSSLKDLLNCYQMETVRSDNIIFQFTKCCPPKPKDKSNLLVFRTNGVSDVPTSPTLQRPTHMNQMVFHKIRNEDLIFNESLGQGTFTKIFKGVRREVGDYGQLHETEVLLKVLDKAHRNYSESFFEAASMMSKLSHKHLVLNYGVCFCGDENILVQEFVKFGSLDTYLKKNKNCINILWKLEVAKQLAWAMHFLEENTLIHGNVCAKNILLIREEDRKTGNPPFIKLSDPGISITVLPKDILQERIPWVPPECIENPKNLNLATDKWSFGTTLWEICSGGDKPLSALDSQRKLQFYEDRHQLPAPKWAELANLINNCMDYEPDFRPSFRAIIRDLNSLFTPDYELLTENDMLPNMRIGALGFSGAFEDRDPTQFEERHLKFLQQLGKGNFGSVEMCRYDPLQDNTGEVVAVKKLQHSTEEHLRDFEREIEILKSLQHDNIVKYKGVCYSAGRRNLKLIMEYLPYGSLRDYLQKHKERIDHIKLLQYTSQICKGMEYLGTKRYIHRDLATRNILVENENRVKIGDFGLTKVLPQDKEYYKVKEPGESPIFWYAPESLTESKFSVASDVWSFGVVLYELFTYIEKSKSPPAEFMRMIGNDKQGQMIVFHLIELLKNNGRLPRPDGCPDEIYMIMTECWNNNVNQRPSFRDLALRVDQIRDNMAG

Compound | GI50
Cc1cc(Nc2nccc(-c3cnc4c(c3)OC(C)(C)C(=O)N4)n2)ccc1N1CC2(C)CN(C)CC(C)(C1)C2 [compound 207, 4-(2,2-dimethyl-3-oxo-3,4-dihydro-2H-pyrido[3,2-b][1,4]oxazin-7-yl)-N-(3-methyl-4-(1,5,7-trimethyl-3,7-diazabicyclo[3.3.1]nonan-3-yl)phenyl)pyrimidin-2-amine] | < 1 µM
CN1CC2(C)CN(c3ccc(Nc4nccc(-c5cnc6c(c5)OC(C)(C)C(=O)N6)n4)cc3F)CC(C)(C1)C2 [compound 208, 4-(2,2-dimethyl-3-oxo-3,4-dihydro-2H-pyrido[3,2-b][1,4]oxazin-7-yl)-N-(3-fluoro-4-(1,5,7-trimethyl-3,7-diazabicyclo[3.3.1]nonan-3-yl)phenyl)pyrimidin-2-amine] | 1 to 10 µM
Cc1cc(Nc2nccc(-c3cnc4c(c3)OCC(=O)N4)n2)ccc1N1C[C@@H]2C[C@H]1CN2C [compound 209, 4-(3-oxo-3,4-dihydro-2H-pyrido[3,2-b][1,4]oxazin-7-yl)-N-(3-methyl-4-((1S,4S)-5-methyl-2,5-diazabicyclo[2.2.1]heptan-2-yl)phenyl)pyrimidin-2-amine] | < 1 µM
Cc1cc(Nc2nccc(-c3cnc4c(c3)OCC(=O)N4)n2)ccc1N1C[C@@H]2C[C@H]1CO2 [compound 210, 4-(3-oxo-3,4-dihydro-2H-pyrido[3,2-b][1,4]oxazin-7-yl)-N-(3-methyl-4-((1S,4S)-5-oxa-2-azabicyclo[2.2.1]heptan-2-yl)phenyl)pyrimidin-2-amine] | < 1 µM
CCOCCCNc1ccc(-c2ccnc(Nc3ccc(N4CC5(C)CN(C)CC(C)(C4)C5)c(C)c3)n2)cn1 [compound 211, 4-(6-(3-ethoxypropyl)aminopyridin-3-yl)-N-(3-methyl-4-(1,5,7-trimethyl-3,7-diazabicyclo[3.3.1]nonan-3-yl)phenyl)pyrimidin-2-amine] | < 1 µM
Cc1cc(Nc2nccc(-c3ccc(N4C[C@@H](C)O[C@@H](C)C4)nc3)n2)ccc1N1CC2(C)CN(C)CC(C)(C1)C2 [compound 212, 4-(6-((2S,6R)-2,6-dimethylmorpholin-4-yl)pyridin-3-yl)-N-(3-methyl-4-(1,5,7-trimethyl-3,7-diazabicyclo[3.3.1]nonan-3-yl)phenyl)pyrimidin-2-amine] | < 1 µM
CCCNc1ccc(-c2ccnc(Nc3ccc(N4CC5(C)CN(C)CC(C)(C4)C5)c(C)c3)n2)cn1 [compound 213, 4-(6-(propylamino)pyridin-3-yl)-N-(3-methyl-4-(1,5,7-trimethyl-3,7-diazabicyclo[3.3.1]nonan-3-yl)phenyl)pyrimidin-2-amine] | < 1 µM
Cc1cc(Nc2nccc(-c3ccc(NCCCN(C)C)nc3)n2)ccc1N1CC2(C)CN(C)CC(C)(C1)C2 [compound 214, 4-(6-(3-dimethylamino)propylaminopyridin-3-yl)-N-(3-methyl-4-(1,5,7-trimethyl-3,7-diazabicyclo[3.3.1]nonan-3-yl)phenyl)pyrimidin-2-amine] | 1 to 10 µM
Cc1cc(Nc2nccc(-c3ccc(N4C[C@@H]5C[C@H]4CO5)nc3)n2)ccc1N1C[C@@H]2C[C@H]1CN2C [compound 215, 4-(6-((1S,4S)-2-oxa-5-azabicyclo[2.2.1]heptan-5-yl)pyridin-3-yl)-N-(3-methyl-4-((1S,4S)-5-methyl-2,5-diazabicyclo[2.2.1]heptan-2-yl)phenyl)pyrimidin-2-amine] | < 1 µM
Cc1cc(Nc2nccc(-c3ccc(N4C[C@@H]5C[C@H]4CO5)nc3)n2)ccc1N1C[C@@H]2C[C@H]1CO2 [compound 216, 4-(6-((1S,4S)-5-oxa-2-azabicyclo[2.2.1]heptan-2-yl)pyridin-3-yl)-N-(3-methyl-4-((1S,4S)-5-oxa-2-azabicyclo[2.2.1]heptan-2-yl)phenyl)pyrimidin-2-amine] | < 1 µM
Cc1cc(Nc2nccc(-c3ccc(NCCC(C)C)nc3)n2)ccc1N1C[C@@H]2C[C@H]1CN2C [compound 217, 4-(6-(3-methylbutyl)aminopyridin-3-yl)-N-(3-methyl-4-((1S,4S)-5-methyl-2,5-diazabicyclo[2.2.1]heptan-2-yl)phenyl)pyrimidin-2-amine] | < 1 µM
Cc1cc(Nc2nccc(-c3ccc(NCCC(C)(C)C)nc3)n2)ccc1N1C[C@@H]2C[C@H]1CN2C [compound 218, 4-(6-(3,3-dimethylbutyl)aminopyridin-3-yl)-N-(3-methyl-4-((1S,4S)-5-methyl-2,5-diazabicyclo[2.2.1]heptan-2-yl)phenyl)pyrimidin-2-amine] | < 1 µM
COCCN(C)c1ccc(-c2ccnc(Nc3ccc(N4C[C@@H]5C[C@H]4CN5C)c(C)c3)n2)cn1 [compound 219, 4-(6-(2-methoxyethyl)(methyl)aminopyridin-3-yl)-N-(3-methyl-4-((1S,4S)-5-methyl-2,5-diazabicyclo[2.2.1]heptan-2-yl)phenyl)pyrimidin-2-amine] | < 1 µM
COCCN(C)c1ccc(-c2ccnc(Nc3ccc(N4C[C@@H]5C[C@H]4CO5)c(C)c3)n2)cn1 [compound 220, 4-(6-(2-methoxyethyl)(methyl)aminopyridin-3-yl)-N-(3-methyl-4-((1S,4S)-5-oxa-2-azabicyclo[2.2.1]heptan-2-yl)phenyl)pyrimidin-2-amine] | < 1 µM
COCCN(C)c1ccc(-c2ccnc(Nc3ccc(N4CC5(C)CN(C)CC(C)(C4)C5)c(C)c3)n2)cn1 [compound 221, 4-(6-(2-methoxyethyl)(methyl)aminopyridin-3-yl)-N-(3-methyl-4-(1,5,7-trimethyl-3,7-diazabicyclo[3.3.1]nonan-3-yl)phenyl)pyrimidin-2-amine] | < 1 µM
Cc1cc(Nc2nccc(-c3ccc(N4CCOCC4)nc3)n2)ccc1N1C[C@@H]2CC[C@H]1C2 [compound 222, 4-(6-(morpholin-4-yl)pyridin-3-yl)-N-(3-methyl-4-((1S,4R)-2-azabicyclo[2.2.1]heptan-2-yl)phenyl)pyrimidin-2-amine] | < 1 µM
Cc1cc(Nc2nccc(-c3cnc4c(c3)OC(C)(C)C(=O)N4)n2)ccc1N1C[C@@H]2CC[C@H]1C2 [compound 223, 4-(2,2-dimethyl-3-oxo-3,4-dihydro-2H-pyrido[3,2-b][1,4]oxazin-7-yl)-N-(3-methyl-4-((1S,4R)-2-azabicyclo[2.2.1]heptan-2-yl)phenyl)pyrimidin-2-amine] | < 1 µM
CC1(C)Oc2cc(-c3ccnc(Nc4ccc(C5CC6CC5CN6S(C)(=O)=O)cc4)n3)cnc2NC1=O (centres unmarked) [compound 226, 4-(2,2-dimethyl-3-oxo-3,4-dihydro-2H-pyrido[3,2-b][1,4]oxazin-7-yl)-N-(4-(2-methylsulfonyl-2-azabicyclo[2.2.1]heptan-5-yl)phenyl)pyrimidin-2-amine] | 1 to 10 µM
CS(=O)(=O)N1CC2CC1CC2c1ccc(Nc2nccc(-c3ccc(N4CCOCC4)nc3)n2)cc1 (centres unmarked) [compound 227, 4-(6-(morpholin-4-yl)pyridin-3-yl)-N-(4-(2-methylsulfonyl-2-azabicyclo[2.2.1]heptan-5-yl)phenyl)pyrimidin-2-amine] | < 1 µM
CC1(C)Oc2cc(-c3ccnc(Nc4ccc(C5CC6CC5N(S(C)(=O)=O)C6)cc4)n3)cnc2NC1=O (centres unmarked) [compound 228, 4-(2,2-dimethyl-3-oxo-3,4-dihydro-2H-pyrido[3,2-b][1,4]oxazin-7-yl)-N-(4-(2-methylsulfonyl-2-azabicyclo[2.2.1]heptan-6-yl)phenyl)pyrimidin-2-amine] | < 1 µM

From US9624229B2, “Pyrimidine-2-amine compounds and their use as inhibitors of JAK kinases” (Rigel Pharmaceuticals, Inc., priority 2008, dated 2017)
